# From ChEMBL document CHEMBL5038625, “Application of the dual-tail approach for the design and synthesis of novel Thiopyrimidine-Benzenesulfonamide hybrids as selective carbonic anhydrase inhibitors” (Eur J Med Chem, 2022)
# Legend:
# CAKI-1 = assay: Antiproliferative activity against human CAKI-1 cells assessed as cell growth inhibition at 10 uM incubated for 24 hrs by sulforhodamine B assay; assay type: functional; details: read-out: GI
# MCF7 [1] = assay: Induction of apoptosis in human MCF cells assessed as viable cells measured after 48 hrs by Annexin-V-FITC/propidium iodide staining based flow cytometry (reference value: 98.15%); assay type: functional
# A549 [2] = assay: Antiproliferative activity against human A549 cells assessed as reduction in cell viability incubated for 24 hrs by sulforhodamine B assay; details: A549, 24 h
# SK-OV-3 = assay: Antiproliferative activity against human SK-OV-3 cells assessed as cell growth inhibition at 10 uM incubated for 24 hrs by sulforhodamine B assay; assay type: functional; details: read-out: GI
# MDA-MB-231 [3] = assay: Cell cycle arrest in human MDA-MB-231 cells assessed as accumulation at sub G1 phase incubated for 48 hrs by propidium iodide staining based flow cytometric analysis (reference value: 0.2 %); assay type: functional
# SNB-19 = assay: Antiproliferative activity against human SNB-19 cells assessed as cell growth inhibition at 10 uM incubated for 24 hrs by sulforhodamine B assay; assay type: functional; details: read-out: GI
# MDA-MB-468 = assay: Antiproliferative activity against human MDA-MB-468 cells assessed as cell growth inhibition at 10 uM incubated for 24 hrs by sulforhodamine B assay; assay type: functional; details: read-out: GI
# NCI/ADR-RES = assay: Antiproliferative activity against human NCI-ADR-RES cells assessed as reduction in cell viability incubated for 24 hrs by sulforhodamine B assay
# KM12 = assay: Antiproliferative activity against human KM12 cells assessed as cell growth inhibition at 10 uM incubated for 24 hrs by sulforhodamine B assay; assay type: functional; details: read-out: GI
# K562 = assay: Antiproliferative activity against human K562 cells assessed as cell growth inhibition at 10 uM incubated for 24 hrs by sulforhodamine B assay; assay type: functional; details: read-out: GI
# MOLT-4 = assay: Antiproliferative activity against human MOLT-4 cells assessed as cell growth inhibition at 10 uM incubated for 24 hrs by sulforhodamine B assay; assay type: functional; details: read-out: GI
# SF-295 = assay: Antiproliferative activity against human SF-295 cells assessed as cell growth inhibition at 10 uM incubated for 24 hrs by sulforhodamine B assay; assay type: functional; details: read-out: GI
# BT-549 = assay: Antiproliferative activity against human BT-549 cells assessed as cell growth inhibition at 10 uM incubated for 24 hrs by sulforhodamine B assay; assay type: functional; details: read-out: GI
# EKVX = assay: Antiproliferative activity against human EKVX cells assessed as cell growth inhibition at 10 uM incubated for 24 hrs by sulforhodamine B assay; assay type: functional; details: read-out: GI
# UACC-257 = assay: Antiproliferative activity against human UACC-257 cells assessed as cell growth inhibition at 10 uM incubated for 24 hrs by sulforhodamine B assay; assay type: functional; details: read-out: GI
# Carbonic anhydrase 9 = Carbonic anhydrase 9 (Homo sapiens, UniProt Q16790); assay: Inhibition of human CA9 preincubated for 15 mins by phenol red dye based stopped flow CO2 hydration assay
# HL-60 = assay: Antiproliferative activity against human HL-60 cells assessed as cell growth inhibition at 10 uM incubated for 24 hrs by sulforhodamine B assay; assay type: functional; details: read-out: GI
# CCRF-CEM = assay: Antiproliferative activity against human CCRF-CEM cells assessed as cell growth inhibition at 10 uM incubated for 24 hrs by sulforhodamine B assay; assay type: functional; details: read-out: GI
# UO-31 = assay: Antiproliferative activity against human UO-31 cells assessed as cell growth inhibition at 10 uM incubated for 24 hrs by sulforhodamine B assay; assay type: functional; details: read-out: GI
# MDA-MB-231 [4] = assay: Induction of apoptosis in human MDA-MB-231 cells assessed as early apoptotic cells measured after 48 hrs by Annexin-V-FITC/propidium iodide staining based flow cytometry (reference value: 0.02%); assay type: functional
# HT-29 [5] = assay: Antiproliferative activity against human HT-29 cells assessed as cell growth inhibition at 10 uM incubated for 24 hrs by sulforhodamine B assay; assay type: functional; details: read-out: GI
# SF-539 = assay: Antiproliferative activity against human SF-539 cells assessed as cell growth inhibition at 10 uM incubated for 24 hrs by sulforhodamine B assay; assay type: functional; details: read-out: GI
# M14 = assay: Antiproliferative activity against human M14 cells assessed as cell growth inhibition at 10 uM incubated for 24 hrs by sulforhodamine B assay; assay type: functional; details: read-out: GI
# HCT-15 = assay: Antiproliferative activity against human HCT-15 cells assessed as cell growth inhibition at 10 uM incubated for 24 hrs by sulforhodamine B assay; assay type: functional; details: read-out: GI
# MCF7 [6] = assay: Induction of apoptosis in human MCF cells assessed as early apoptotic cells measured after 48 hrs by Annexin-V-FITC/propidium iodide staining based flow cytometry (reference value: 0.09%); assay type: functional
# HCT-116 = assay: Antiproliferative activity against human HCT-116 cells assessed as cell growth inhibition at 10 uM incubated for 24 hrs by sulforhodamine B assay; assay type: functional; details: read-out: GI
# MDA-MB-231 [7] = assay: Induction of apoptosis in human MDA-MB-231 cells assessed as late apoptotic cells measured after 48 hrs by Annexin-V-FITC/propidium iodide staining based flow cytometry (reference value: 0.91%); assay type: functional
# MCF7 [8] = assay: Cell cycle arrest in human MCF7 cells assessed as accumulation at G2 phase incubated for 48 hrs by propidium iodide staining based flow cytometric analysis (reference value: 20.73 %); assay type: functional
# SF-268 = assay: Antiproliferative activity against human SF-268 cells assessed as cell growth inhibition at 10 uM incubated for 24 hrs by sulforhodamine B assay; assay type: functional; details: read-out: GI
# HT-29 [9] = assay: Antiproliferative activity against human HT-29 cells assessed as reduction in cell viability incubated for 24 hrs by sulforhodamine B assay; details: HT-29, 24 h
# OVCAR-5 = assay: Antiproliferative activity against human OVCAR-5 cells assessed as cell growth inhibition at 10 uM incubated for 24 hrs by sulforhodamine B assay; assay type: functional; details: read-out: GI
# SNB-75 = assay: Antiproliferative activity against human SNB-75 cells assessed as cell growth inhibition at 10 uM incubated for 24 hrs by sulforhodamine B assay; assay type: functional; details: read-out: GI
# 786-0 = assay: Antiproliferative activity against human 786-0 cells assessed as cell growth inhibition at 10 uM incubated for 24 hrs by sulforhodamine B assay; assay type: functional; details: read-out: GI
# PC-3 = assay: Antiproliferative activity against human PC-3 cells assessed as cell growth inhibition at 10 uM incubated for 24 hrs by sulforhodamine B assay; assay type: functional; details: read-out: GI
# COLO 205 = assay: Antiproliferative activity against human COLO 205 cells assessed as cell growth inhibition at 10 uM incubated for 24 hrs by sulforhodamine B assay; assay type: functional; details: read-out: GI
# MCF7 [10] = assay: Cell cycle arrest in human MCF7 cells assessed as accumulation at G1 phase incubated for 48 hrs by propidium iodide staining based flow cytometric analysis (reference value: 42.84 %); assay type: functional
# RXF 393 = assay: Antiproliferative activity against human RXF 393 cells assessed as cell growth inhibition at 10 uM incubated for 24 hrs by sulforhodamine B assay; assay type: functional; details: read-out: GI
# A549 [11] = assay: Antiproliferative activity against human A549 cells assessed as cell growth inhibition at 10 uM incubated for 24 hrs by sulforhodamine B assay; assay type: functional; details: read-out: GI
# SK-MEL-5 = assay: Antiproliferative activity against human SK-MEL-5 cells assessed as cell growth inhibition at 10 uM incubated for 24 hrs by sulforhodamine B assay; assay type: functional; details: read-out: GI
# NCI-H522 = assay: Antiproliferative activity against human NCI-H522 cells assessed as cell growth inhibition at 10 uM incubated for 24 hrs by sulforhodamine B assay; assay type: functional; details: read-out: GI
# MDA-MB-231 [12] = assay: Antiproliferative activity against human MDA-MB-231 cells assessed as reduction in cell viability incubated for 24 hrs by sulforhodamine B assay; assay type: functional, cell-based; details: MDA-MB-231, 24 h
smiles,measurement,setting,value
COc1ccc(OC)c(-c2nc(SCC(=O)c3ccc(Br)cc3)nc(Nc3ccc(S(N)(=O)=O)cc3)c2C#N)c1,inhibition of growth at 10 µM,CAKI-1,65.6%
same,Activity,MCF7 [1],88.17%
same,IC50,A549 [2],16.5 µM
same,inhibition of growth at 10 µM,SK-OV-3,20.1%
same,Activity,MDA-MB-231 [3],11.52%
same,inhibition of growth at 10 µM,SNB-19,50.1%
same,inhibition of growth at 10 µM,MDA-MB-468,56.1%
same,IC50,NCI/ADR-RES,33.7 µM
same,inhibition of growth at 10 µM,KM12,79.1%
same,inhibition of growth at 10 µM,K562,77.5%
same,inhibition of growth at 10 µM,MOLT-4,71.5%
same,inhibition of growth at 10 µM,SF-295,66.9%
same,inhibition of growth at 10 µM,BT-549,50.6%
same,inhibition of growth at 10 µM,EKVX,36.3%
same,inhibition of growth at 10 µM,UACC-257,43.1%
same,Ki,Carbonic anhydrase 9,0.0868 µM
same,inhibition of growth at 10 µM,HL-60,74.1%
same,inhibition of growth at 10 µM,CCRF-CEM,64.7%
same,inhibition of growth at 10 µM,UO-31,40.8%
same,Activity,MDA-MB-231 [4],0.48%
same,inhibition of growth at 10 µM,HT-29 [5],72.8%
same,inhibition of growth at 10 µM,SF-539,71.6%
same,inhibition of growth at 10 µM,M14,57.5%
same,inhibition of growth at 10 µM,HCT-15,77.9%
same,Activity,MCF7 [6],0.73%
same,inhibition of growth at 10 µM,HCT-116,84.6%
same,Activity,MDA-MB-231 [7],5.2%
same,Activity,MCF7 [8],50.47%
same,inhibition of growth at 10 µM,SF-268,43.3%
same,IC50,HT-29 [9],4.3 µM
same,inhibition of growth at 10 µM,OVCAR-5,26.7%
same,inhibition of growth at 10 µM,SNB-75,77.8%
same,inhibition of growth at 10 µM,786-0,58.6%
same,inhibition of growth at 10 µM,PC-3,64.7%
same,inhibition of growth at 10 µM,COLO 205,31.6%
same,Activity,MCF7 [10],5.77%
same,inhibition of growth at 10 µM,RXF 393,82.7%
same,inhibition of growth at 10 µM,A549 [11],32.5%
same,inhibition of growth at 10 µM,SK-MEL-5,44%
same,inhibition of growth at 10 µM,NCI-H522,52%
same,IC50,MDA-MB-231 [12],2.4 µM
